# Data taken from US20120100555A1, “Synthesis And Use Of Fluorophore-Tagged Antimalarials” (priority 2009, published 2012).
# Columns and labels:
# [1] = test system: Plasmodium falciparum parasites; assay: CM-CQ accumulation with chemo-sensitizers, flow cytometry; type: cell-based; conditions: for effect of pre-treatment on CM-CQ accumulation in K1: K1 (CQ-resistant), 10 uM chemo-sensitizer 30 min, then 6 uM CM-CQ 10 hrs
# Experimental: FIG. 8 is a graph showing the effects of chemo-sensitizers on coumarin-conjugated chloroquine (CM-CQ) accumulation in Plasmodium falciparum parasites. Data were obtained by flow cytometry.
# (§1) Subsequently, 6 uM of Coumarin-Chloroquine (CM-CQ) was added to the samples for 10 hrs and left to incubate in the dark at 37° C. To ascertain the exact parasitemia of each condition, cultures in duplicate wells were stained with Hoechst just before flow cytometric analysis and fluorescence plate measurements. The proportion of CM-CQ-stained parasites was the ratio of the proportion of CM-CQ-stained infected erythrocyte culture over the proportion of Hoechst-positive erythrocytes.
# [2] = test system: Plasmodium falciparum parasites; assay: CM-CQ accumulation with chemo-sensitizers, fluorescent plate reader; type: cell-based; conditions: for effect of pre-treatment on CM-CQ accumulation in K1: K1 (CQ-resistant), 10 uM chemo-sensitizer 30 min, then 6 uM CM-CQ 10 hrs
# Experimental: FIG. 9 is a graph showing the effects of chemo-sensitizers on coumarin-conjugated chloroquine (CM-CQ) accumulation in Plasmodium falciparum parasites, obtained by spectrofluorometer plate readings.
# as §1
# P. falciparum, 3D7 [3] = assay: Mitochondria trans-membrane potential assay (JC-1); type: cell-based, Plasmodium falciparum
# Experimental: Plasmodium falciparum culture. […] Parasite cultures were maintained in 75 cm^2 or 125 cm^2 flasks using malaria culture media (MCM) consisting of RPMI 1640 supplemented with 0.5% (w/v) albumax I (Invitrogen), 0.005% (w/v) hypoxanthine, 0.03% (w/v) L-glutamate, 0.25% (w/v) gentamycin and 2.5% human erythrocytes. Flasks were gassed with 3% CO2, 4% O2 and 93% N2 and incubated at 37° C. in a dark incubator. Culture medium was replenished during subculturing on alternate days. Thin Giemsa smears were made to determine parasitemia before subculture and at the start of each experiment. Sorbitol synchronization (See Lambros, C., and Vanderberg, J. P. (1979) J Parasitol 65, 418-420) was carried out weekly to select for ring-stage parasites. Saponin enrichment (See Beaumelle, B. D., et al., (1987) J. Parasitol 73, 743-748) was carried out prior to staining with CaspaTag to liberate the parasites from host erythrocytes. […]
# Flow Cytometric Analyses. Cell numbers and fluorescence intensity after staining with JC-1 were assayed by a flow cytometer (DAKO Cytomation Cyan ADP), equipped with an argon-ion laser tuned to 488 nm and a violet laser tuned to 405 nm. Green and red fluorescence was detected using 525 and 595 nm band-pass filters respectively. […] Between 10,000 to 20,000 infected erythrocytes or enriched parasites were analyzed from each sample and its respective duplicate to ensure reliability. […]
# P. falciparum, 3D7 [4] = conditions: low nanomolar concentrations of CQ, 8 hours
# Experimental: (§2) Plasmodium falciparum culture. […] Parasite cultures were maintained in 75 cm^2 or 125 cm^2 flasks using malaria culture media (MCM) consisting of RPMI 1640 supplemented with 0.5% (w/v) albumax I (Invitrogen), 0.005% (w/v) hypoxanthine, 0.03% (w/v) L-glutamate, 0.25% (w/v) gentamycin and 2.5% human erythrocytes. Flasks were gassed with 3% CO2, 4% O2 and 93% N2 and incubated at 37° C. in a dark incubator. Culture medium was replenished during subculturing on alternate days. Thin Giemsa smears were made to determine parasitemia before subculture and at the start of each experiment. Sorbitol synchronization (See Lambros, C., and Vanderberg, J. P. (1979) J Parasitol 65, 418-420) was carried out weekly to select for ring-stage parasites. Saponin enrichment (See Beaumelle, B. D., et al., (1987) J. Parasitol 73, 743-748) was carried out prior to staining with CaspaTag to liberate the parasites from host erythrocytes. Cultures of approximately 10% parasitemia were used, with parasites being in the […] (22-26 hours post-invasion) during the administration of inhibitor and drugs unless otherwise stated.
# [5] = test system: P. falciparum strains 3D7 (CQ-susceptible); assay: Inhibitory concentration (IC50) determination, Hoechst staining and flow cytometry; type: cell-based, Plasmodium falciparum
# Experimental: Parasitized cultures were incubated for 48 hours with various concentrations of the test compounds and, thereafter, parasitemia was determined using Hoechst staining and flow cytometric analyses.
# as §2
# Inhibitory concentration (IC50) determination. […] To determine parasitemia, cultures were stained with Hoechst 33342, as described above, and analyzed by flow cytometry.
# Flow Cytometric Analyses. Cell numbers and fluorescence intensity after staining with JC-1 were assayed by a flow cytometer (DAKO Cytomation Cyan ADP), equipped with an argon-ion laser tuned to 488 nm and a violet laser tuned to 405 nm. Green and red fluorescence was detected using 525 and 595 nm band-pass filters respectively. The flow cytometer was adjusted for forward and side scattering to accommodate infected erythrocytes. Between 10,000 to 20,000 infected erythrocytes or enriched parasites were analyzed from each sample and its respective duplicate to ensure reliability. At least three independent experiments were performed unless otherwise stated.
# [6] = 3D7, 48 hours, at the tested concentrations
SMILES,effect of pre-treatment on CM-CQ accumulation in K1 [1],effect of pre-treatment on CM-CQ accumulation in K1 [2],further results
"COc1ccc(CCN(C)CCCC(C#N)(c2ccc(OC)c(OC)c2)C(C)C)cc1OC (centres unmarked) [VPM, verapamil]",significantly increased,significantly increased,–
"COc1ccc([C@@H]2Sc3ccccc3N(CCN(C)C)C(=O)[C@@H]2OC(C)=O)cc1 [DTZ, diltiazem]",not,not,–
"CC(CN1c2ccccc2Sc2ccccc21)N(C)C (centres unmarked) [PMZ, promethazine]",significantly increased,increase was also detected,–
"CCN(CC)CCCC(C)Nc1ccnc2cc(Cl)ccc12 (centres unmarked) [CQ, Chloroquine diphosphate]",–,–,"PCD features (JC-1) (P. falciparum, 3D7 [3]; low nanomolar concentrations of CQ, 8 hours): basal levels; PCD features (CaspaTag) (P. falciparum, 3D7 [4]): basal levels"
"CC(C)NCC(O)COc1cccc2ccccc12 (centres unmarked) [PPL, propranolol]",not,not,–
"CN(C)c1ccc2c(CC(=O)O)cc(=O)oc2c1 [CM, 7-dimethyl amino-4-coumarinacetic acid]",–,–,"cytotoxicity [5, 6]: not cytotoxic; inhibitory effect on parasitemia [5, 6]: no detectable inhibitory effect"
"CN(C)CCCN1c2ccccc2Sc2ccc(Cl)cc21 [CPZ, chlorpromazine]",significantly increased,significantly increased,–
"CN(C)CCC(c1ccc(Cl)cc1)c1ccccn1 (centres unmarked) [CPR, chlorpheneramine]",increase was also detected,significantly increased,–
"CNCCCN1c2ccccc2CCc2ccccc21 [DSP, desipramine]",significantly increased,significantly increased,–
CCN(CCCCNc1ccnc2cc(Cl)ccc12)CC(=O)NCCNC(=O)Cc1cc(=O)oc2cc(N(C)C)ccc12 [CM-CQ],–,–,"activity compared to chloroquine (FIG. 2) ([5]; 3D7): activity comparable to chloroquine; IC50 ([5]; Plasmodium falciparum, read-out: IC50 (50% inhibitory concentration), 3D7, ring stage, 48 hours, parasitemia by Hoechst 33342 flow cytometry): 349 nM; proportion of parasites containing functional mitochondrion with transmembrane potential (ΔΨm) after treatment (P. falciparum, 3D7 [3]; JC-1 J-aggregates, dose-dependent decline from about 90% in uninduced cells): ~60%; CM-CQ accumulation, 3D7 compared to 7G8 and K1 ([1]; 6 uM CM-CQ 10 hrs, p<0.05): different levels; CM-CQ accumulation, 3D7 compared to 7G8 and K1 ([2]; 6 uM CM-CQ 10 hrs, p<0.001): different levels"
